Data taken from patent US20070172529A1, “Herbal formulation for the treatment of piles” (COUNCIL OF SCIENTIFIC AND INDUSTRIAL RESEARCH, priority 2004, published 2007).
Marks after values point to notes of the source that are not given here.

What was measured:
[1] = tested on: Bacillus Substilis; settings: against Bacillus Substilis; cited from earlier work
[2] = tested on: force-induced pain; experiment: Analgesy-meter force-induced pain in rats; assay type: in vivo, rat; settings: mean ± SEM, six rats
Experimental: Analgesy-meter induced pain: The analgesic effect of the powder was tested in rat of either sex, using an Ugo Basile Analgesy meter (No. 32725) (21025 Comerio-[…], Italy). This method involves the application of force to the paw of the rat using the Analgesy-meter, which exerts a force that increases at a constant rate. The rat was gently placed between the plinth and plunger. The instrument was switched on and a constant motor rate was used to drive the plunger on to the paw of the rat. When the rat struggles, the instrument is switched off and the force at which the animal felt pain was read on a scale calibrated in grams ×10 by a pointers. The pre-treatment and the after treatment weight causing pain was determined for each rat. […]

[3] = tested on: λ carrageenin induced edema; experiment: λ carrageenin induced paw edema in rats; assay type: in vivo, rat
Experimental: Carrageenin induced paw edema: Rats were injected with 0.1 ml of 1% λ carrageenin (St.-Louis, Mo.) into the subplantar side of the left hind paw. The paw was marked with ink at the level of the lateral malleolus and dipped in perspex cell up to this mark. The paw volume was measured with an Ugo Basile Plethysmometer (No: 61402) (7140 Comerio-varese, Italy) immediately and 3 h after injecting the λ carrageenin suspension. […] Significant reductions in the paw volume compared to vehicle treated control animals were considered as anti-inflammatory response. Percentage inhibition of oedema was calculated as follows: % Inhibition=(1−VT/VC)×100
VT=Paw volume in drug treated rats, VC=Paw volume in control group of rats.

[4] = tested on: interleukin-1 production; settings: Chem. Pharm. Bull. 1992, 40,2041; cited from earlier work

C[C@@H]1O[C@@H](Oc2ccc(CN=C=S)cc2)[C@H](O)[C@H](O)[C@H]1O [4-(α-L Rhamnosyloxy benzylisothiocynate]
Antibacterial activity [1]: exhibited antibacterial activity

CC(C)Cc1ccc(C(C)C(=O)O)cc1 (stereo not drawn) [Ibuprofen]
Weight causing pain (g) After Administration ([2]; 100 mg/kg): 161.1 ± 7.9^b g | Weight causing pain (g) Before Administration ([2]; pre-treatment value of 100 mg/kg group): 84.7 ± 5.7 g

COc1ccc2c(c1)c(CC(=O)O)c(C)n2C(=O)c1ccc(Cl)cc1 [Indomethacin]
Paw volume (ml) at 3h λ carrageenin ([3]; 100 mg/kg, mean ± SEM, six rats): 0.15 ± 0.02 mL | inhibition at 100 mg/kg ([3]; Rattus norvegicus, 3 h after λ carrageenin, vs control): 84.7%

Pongapipnone A
Inhibition of interleukin-1 production [4]: inhibited interleukin-1 production
